Measured values from article PMC11462456 (Chemical Science, 2024).

What was measured:
[1] = target: T1, CRBN (Homo sapiens, UniProt Q96SW2); test: E3 ligase homo-degradation by western blot, CRBN; type: cell-based; conditions: HEK293 cells, 4 h, 0.1, 1 and 10 μM
T1 construct: western blot analysis of the levels of CRBN and VHL E3 ligase in cell lysate; endogenous in cells; host or cells: HEK293 (ATCC)
Description: (§1) 4. Biological experiments
(§2) Primary antibodies used for western blotting included anti-human BRD2(1:2000, rabbit monoclonal, Abcam, ab139690), anti-human BRD3 (1:1000, rabbit monoclonal, Abcam, ab264420), anti-human BRD4 (E2A7X) (1:1000, rabbit monoclonal, Cell Signaling Technology, #13440), anti-human VHL (1:1000, rabbit polyclonal, Cell Signaling Technology, #68547), anti-human CRBN (D8H3S) (1:1000, rabbit polyclonal, Cell Signaling Technology, #71810), anti-human alpha Tubulin, clone B-5-1-2 (1:5000, mouse monoclonal, Merck Life Science, # 32-2500).Secondary antibodies used for western blot included: anti-mouse horseradish peroxidase-linked antibody (1:3000, sheep, GE Healthcare Life Sciences, #NA931V), and anti-rabbit horseradish peroxidase-linked antibody (1:8000, donkey, GE Healthcare Life Sciences, #NA934V). Reagent for degradation assay and compounds […]
dr. Serge Van Calenbergh, Ghent University).
4.2 Cell lines and culture
HEK293, A549, SKOV-3, HCT116 cells (ATCC)were grown in DMEM (Gibco),and all cells were supplemented with 10% (v/v) fetal bovine serum (FBS) (Sigma), […] penicillin/streptomycin solution (Thermo Fisher Scientific) and maintained at 37 °C and 5% CO2 in a humidified atmosphere. All cells used were tested monthly using the Mycoalert Mycoplasma Detection Kit (cat. no. LT07-318, Lonza) to exclude mycoplasma contamination.
4.3 Degradation assays by Western blot
General method of Western blot: Lysates were sonicated and centrifuged at 4 °C at 20000 g for 15 min, and the supernatants were transferred to new tubes. Protein concentration of cell lysates was measured using the DC Protein Assay kit (BIO-RAD) following manufacturer's instructions. Cell lysates were mixed with reducing sample buffer (0.5 M Tris-HCl (pH 6.8), 43% glycerol, 9.2% SDS, 5% 2-mercaptoethanol, 5% bromophenol blue) and boiled for 5 min at 95°C. […]
(§3) Figure S5 Homo-degradation effect in Dual-ligand PROTACs. […] Subsequently, cell lysates were prepared and the protein levels of CRBN or VHL E3 ligase were assessed by Western blotting. […]

[2] = target: T2, VHL (Homo sapiens, UniProt P40337); test: E3 ligase homo-degradation by western blot, VHL; type: cell-based; conditions: HEK293 cells, 4 h, 1 μM and 10 μM
T2 construct: western blot analysis of the levels of CRBN and VHL E3 ligase in cell lysate; endogenous in cells; host or cells: HEK293 (ATCC)
T2 sequence (P40337 whole entry): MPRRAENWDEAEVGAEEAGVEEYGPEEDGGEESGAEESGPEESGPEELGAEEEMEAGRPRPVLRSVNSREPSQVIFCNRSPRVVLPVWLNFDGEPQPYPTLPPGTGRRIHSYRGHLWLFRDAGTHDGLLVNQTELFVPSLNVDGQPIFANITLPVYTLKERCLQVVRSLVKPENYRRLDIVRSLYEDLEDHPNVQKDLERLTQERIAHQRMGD
Description: as §1, §2
dr. Serge Van Calenbergh, Ghent University). […]
General method of Western blot: Lysates were sonicated and centrifuged at 4 °C at 20000 g for 15 min, and the supernatants were transferred to new tubes. Protein concentration of cell lysates was measured using the DC Protein Assay kit (BIO-RAD) following manufacturer's instructions. […]
as §3

[3] = system: HEK293, A549, HCT116 and SKOV-3; test: CellTiter-Glo metabolic activity, cell line panel; type: cell-based; conditions: 48 h
Description: (§4) 4.4 Cell viability assay on 2D cells cultures
(§5) HEK293, HCT116, A549,andSKOV-3 cells were seeded in 96-well tissue culture plates at a density of 2000-3000 cells per well in 100 µl of growth medium and incubated overnight at 37 °C with 5% CO2. The following day, the cells were treated with various concentrations of compounds or 0.05% DMSO for 48 h. After treatment, add 100 μl of Cell Titer-Glo® 2.0 Reagent (cat. no. G9243, Promega) in each well, then the 96-well plates were put on an orbital shaker for 10 min and then allow the plate to incubate at room temperature for 10-20min to stabilize the luminescent signal. Luminescence readout (Gen5 Data Analysis Software v3.08.01) was performed to record luminescence.
(§6) (1 picture or pasted object on this page, not shown here)

[4] = target: T3, BRD4 (Homo sapiens, UniProt O60885); test: Western blot degradation of BRD4 in HEK293 cells; type: cell-based; conditions: HEK293 cells, 4 h, 0.1 μM to 1 nM, Fig. S2
T3 construct: BRD2, BRD3 and BRD4 protein levels were measured by western blot; endogenous in cells; host or cells: HEK293 (ATCC)
Description: HEK293, A549, SKOV-3, HCT116 cells (ATCC)were grown in DMEM (Gibco),and all cells were supplemented with 10% (v/v) fetal bovine serum (FBS) (Sigma), 100 mg/mL penicillin/streptomycin solution (Thermo Fisher Scientific) and maintained at 37 °C and 5% CO2 in a humidified atmosphere. All cells used were tested monthly using the Mycoalert
at 95°C. Proteins were separated by SDS–PAGE (SDS polyacrylamide gel electrophoresis) with 25–40 µg of total protein per well, transferred to 0.2-μm-pore nitrocellulose membranes (BIO-RAD), then blocked in 5%(w/v) milk in PBS and 0.5% Tween-20, and incubated overnight at 4°C with primary antibodies described in section 4.1. Secondary antibodies were added for 1h at room temperature after 3 times washing with blocking buffer. After 6 times of washing
with PBS (Thermo Fisher Scientific) and 0.5% Tween-20, Blots were detected using the Clarity Western ECL Substrate (BIO-RAD) and visualized on iBright CL 750 (Thermo Fisher Scientific) and images were analyzed using iBright Firmware 1.7.0.
4.3.1 Evaluation of the degradation capacity of PROTACs […]

[5] = system: HEK293 cells; test: CellTiter-Glo 2D metabolic activity assay, HEK293; type: cell-based; conditions: Homo sapiens, 2D culture, 48 h
Description: Figure S5 Homo-degradation effect in Dual-ligand PROTACs. HEK293 cells were treated with all synthesized PROTACs or 2V-alkyne/2P-alkyne for 4 hours. Subsequently, cell lysates were prepared and the protein levels of CRBN or VHL E3 ligase were assessed by Western blotting. (A) Representative image of CRBN or VHL E3 ligase homo-degradation was screened for all PROTACs and commercial single-ligand PROTACs at a concentration of 0.1, 1 and 10 µM, respectively (equivalent volume of DMSO as control group). (B) Representative image of CRBN or VHL E3 ligase homo-degradation was screened for 2P-alkyne or 2V-alkyne at a concentration of 0.1, 1 and 10 µM, respectively (equivalent volume of DMSO as control group). Experiments were performed as three independent replicates.
as §4
HEK293, HCT116, A549,andSKOV-3 cells were seeded in 96-well tissue culture plates at a density of 2000-3000 cells per well in 100 µl of growth medium and incubated overnight at 37 °C with 5% CO2. The following day, the cells were treated with various concentrations of compounds or 0.05% DMSO for 48 h. […] Luminescence readout (Gen5 Data Analysis Software v3.08.01) was performed to record luminescence. […]

[6] = system: HCT116 cells; test: CellTiter-Glo 2D metabolic activity assay, HCT116; type: cell-based; conditions: Homo sapiens, HCT-116, 2D culture, 48 h
Description: as §4, §5, §6

[7] = system: A549 spheroids; test: CellTiter-Glo 3D assay on spheroids; type: cell-based; conditions: Homo sapiens, 72 h, read-out: EC50, spheroid metabolic activity
Description: 4.5 Cell viability assay on 3D cell cultures
The single cell suspension containing 2.5 ×10^4 cells/ml of A549 or 2 ×10^4 cells/ml of HCT116 were seeded into the U-shaped, 384-well ULA plates (cat. no. MS-9384UZ, S-bio), each well containing 80 μl single cell suspension. The 384-well ULA plates were sealed with Breath-Easy semipermeable tape (cat. no. BEM-1, Diversified Biotech) to prevent evaporation. The spheroids were put into incubator and then cultured at 37 °C and 10% CO2. After 48h of spheroids formation, the spheroids were treated with various concentrations of compounds or 0.05% DMSO. After 72h treatment, each spheroid in the culture medium was pipetted into white micro-96-well plates (cat. no. 236108, ThermoFisher) and an equal volume of Cell Titer-Glo 3D (cat. no. G9683, Promega) reagent was added. Luminescence readouts were the same as described above for 2D culture.

[8] = system: A549 cells; test: CellTiter-Glo 2D metabolic activity assay, A549; type: cell-based; conditions: Homo sapiens, 2D culture, 48 h
Description: as §4, §5, §6

[9] = Parallel artificial membrane permeability assay (PAMPA); type: in vitro ADME; conditions: 10 uM, pH 7.4, four hours
Description: 4.9 Study of membrane permeability of single-ligand and dual-ligand PROTACs Parallel artificial membrane permeability assay (PAMPA) is a non-cell based assay designed to predict passive, transcellular permeability of a test compound through a PVDF membrane filter pretreated with lipid. At a given pH a log Pe (log of effective permeability) can be determined by a UV spectrophotometer. […]
is carried out in the company of Eurofins Panlabs, 6 Research Park Dr. St. Charles, MO 63304, U.S.A. The results are attached as an excel file.
Sample preparation The test compound is prepared from a 10 mM DMSO stock solution and diluted to a single final concentration of 10 uM in donor buffer. The donor solution is placed in contact with the acceptor buffer at a single pH = 7.4 with the membrane in between and the sandwich is incubated for four hours at ambient temperature.
Reference compounds Ketoprofen, propranolol and furosemide. The reference compounds yield log Pe (10-6 cm/s) values that cover the typical range of the assay from high (Propranolol), mid (Ketoprofen) to low (Furosemide) permeability.
Analytical method UV/Vis spectrophotometer
The UV absorption is measured from 250 to 500 nm for both donor and acceptor plate.
Adjustments to the method may be made as necessary to improve detection or UV spectrum.
Data analysis The amount of compound UV absorbance is determined in the donor plate prior to starting the experiment for each compound. The UV absorbance was measured from the (1 picture or pasted object on this page, not shown here) […]
donor and acceptor plate after a four hour incubation time. The log Pe was calculated using […]
4.10 Statistical Analysis.
Data analyses were performed using GraphPad Prism 9 software. The results are presented as the mean ± standard deviation (SD) or standard error of mean (SEM). All statistical analyses were evaluated with one-way analysis of variance (ANOVAs), or unpaired Student’s t-test. The difference was considered statistically significant when P < 0.05.

T1 sequence (Q96SW2 whole entry): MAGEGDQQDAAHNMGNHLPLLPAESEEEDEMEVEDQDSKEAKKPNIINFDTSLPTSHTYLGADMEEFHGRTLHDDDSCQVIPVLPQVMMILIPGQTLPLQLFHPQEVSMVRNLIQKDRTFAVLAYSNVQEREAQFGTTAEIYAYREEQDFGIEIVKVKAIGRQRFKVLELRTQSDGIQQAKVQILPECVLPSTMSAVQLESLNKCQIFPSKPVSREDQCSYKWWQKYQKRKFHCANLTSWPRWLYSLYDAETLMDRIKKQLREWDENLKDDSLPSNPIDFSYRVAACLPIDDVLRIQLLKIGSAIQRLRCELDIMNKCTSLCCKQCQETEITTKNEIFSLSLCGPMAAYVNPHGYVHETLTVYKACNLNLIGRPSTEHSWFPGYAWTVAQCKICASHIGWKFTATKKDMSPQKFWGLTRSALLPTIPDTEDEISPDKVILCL

| Compound | CRBN level (homo-degradation) [1] | metabolic inhibition, comparison [3] | protein degradation potency, controls with similar linker length [4] | further results |
| --- | --- | --- | --- | --- |
| Cc1sc2c(c1C)C(c1ccc(Cl)cc1)=N[C@@H](CC(=O)NCCOCCOCCOCCn1cc(CCC(=O)N[C@@H](CC(=O)NCCOCCOCCNc3cccc4c3C(=O)N(C3CCC(=O)NC3=O)C4=O)C(=O)NCCOCCOCCNc3cccc4c3C(=O)N(C3CCC(=O)NC3=O)C4=O)nn1)c1nnc(C)n1-2 (stereo partly drawn) [1J2P] | did not induce any significant decrease of CRBN |  |  |  |
| Cc1ncsc1-c1ccc(C(C)NC(=O)C2CC(O)CN2C(=O)C(NC(=O)COCCOCCNC(=O)CC(NC(=O)CCc2cn(CCOCCOCCOCCNC(=O)CC3N=C(c4ccc(Cl)cc4)c4c(sc(C)c4C)-n4c(C)nnc43)nn2)C(=O)NCCOCCOCC(=O)NC(C(=O)N2CC(O)CC2C(=O)NC(C)c2ccc(-c3scnc3C)cc2)C(C)(C)C)C(C)(C)C)cc1 (stereo not drawn) [1J2V] |  |  |  | VHL homo-degradation [2]: did induce homo-degradation of VHL |
| Cc1sc2c(c1C)C(c1ccc(Cl)cc1)=N[C@@H](CC(=O)NCCOCCOCCNC(=O)C[C@H](NC(=O)COCCOCCOCCOCCn1cc(CNc3cccc4c3C(=O)N(C3CCC(=O)NC3=O)C4=O)nn1)C(=O)NCCOCCOCCNC(=O)C[C@@H]1N=C(c3ccc(Cl)cc3)c3c(sc(C)c3C)-n3c(C)nnc31)c1nnc(C)n1-2 (stereo partly drawn) [2J1P] |  | higher metabolic inhibition compared to single-ligand PROTACs | could still potently degrade the BRD proteins |  |
| Cc1ncsc1-c1ccc(C(C)NC(=O)C2CC(O)CN2C(=O)C(NC(=O)CCc2cn(CCOCCOCCOCCOCC(=O)NC(CC(=O)NCCOCCOCCNC(=O)CC3N=C(c4ccc(Cl)cc4)c4c(sc(C)c4C)-n4c(C)nnc43)C(=O)NCCOCCOCCNC(=O)CC3N=C(c4ccc(Cl)cc4)c4c(sc(C)c4C)-n4c(C)nnc43)nn2)C(C)(C)C)cc1 (stereo not drawn) [2J1V] |  | higher metabolic inhibition compared to single-ligand PROTACs | could still potently degrade the BRD proteins |  |
| C#CCCC(=O)N[C@@H](CC(=O)NCCOCCOCCNc1cccc2c1C(=O)N(C1CCC(=O)NC1=O)C2=O)C(=O)NCCOCCOCCNc1cccc2c1C(=O)N(C1CCC(=O)NC1=O)C2=O (stereo partly drawn) [2P-alkyne] | did not induce any degradation of CRBN |  |  |  |
| Cc1sc2c(c1C)C(c1ccc(Cl)cc1)=NC(CC(=O)NCCCCNC(=O)COc1cccc3c1C(=O)N(C1CCC(=O)NC1=O)C3=O)c1nnc(C)n1-2 (stereo not drawn) [dBET1] |  |  |  | EC50 [5]: 900 nM; EC50 [6]: > 10000 nM; EC50 [7]: 7000 nM; EC50 [8]: 2000 nM; membrane permeability [9]: very limited membrane permeability |
